The values that follow come from patent publication US20230010299A1, “HETEROCYCLIC TRPML1 AGONISTS” (LIBRA THERAPEUTICS, INC., priority 2019, published 2023).

One assay deals with T1, TRPML1 (Homo sapiens, UniProt Q9GZU1).
T1 construct: expressed in transfected cells
Kind of assay: TRPML1 manual patch clamp on isolated enlarged endolysosomes. It is filed as cell-based. The note with it: whole-endolysosome recording, HEK T-REx/GcaMP6f/TRPML1 cells, luminal pH 4.6. Here is the method: TRPML1 —Manual Patch Clamp
Endolysosomal electrophysiology was performed in isolated enlarged endolysosomes using a modified patch-clamp method (Dong et al., 2010). HEK T-REx/GcaMP6f/TRPML1 cells were treated with […] PIKfive inhibitor overnight. Whole-endolysosome recordings were performed on manually isolated enlarged endolysosomes (Dong et al., 2010). In brief, a patch pipette was pressed against a cell and quickly pulled away to slice the cell membrane. Enlarged endolysosomes were released into a dish and a gigaseal between the patch pipette and the enlarged endolysosome was obtained. Negative pressure or voltage steps of several hundred millivolts with millisecond duration were then applied to break into the vacuolar membrane.
Bath (internal/cytoplasmic) solution contained 140 mM K-gluconate, 4 mM NaCl, 1 mM EGTA, 2 mM MgCl2, 0.39 mM CaCl2), 20 mM HEPES (pH was adjusted with KOH to 7.2). The pipette (luminal) solution was standard extracellular solution (modified Tyrode's: 145 mM NaCl, 5 mM KCl, 2 mM CaCl2), 1 mM MgCl2, 10 mM HEPES, 10 mM MES, 10 mM glucose; the pH was adjusted with NaOH to pH 4.6).
Dilution from stock were prepared just before the experiments in the extracellular solution (0.1% final DMSO concentration). DMSO solution was obtained from AppliChem (cat. A3672).
All bath solutions were applied via a perfusion system that allowed us to achieve complete solution exchange within a few seconds.
Data were collected using an HEKA EPC 10 patch-clamp amplifier, and PatchMaster v2x73.5 software (HEKA Elektronik). Whole-endolysosome currents were digitized at 20 kHz. All experiments were conducted at room temperature, and all recordings were analyzed with pClamp 10.7 (Molecular Devices) and GraphPad Prism (V8.00).
TRPML1 current was evoked using the voltage protocol illustrated in FIG. 3, applied every 5 sec. (10 ms at −80 mV; 500 ms ramp from −120 to +40 mV; 10 ms at −80 mV); in the absence (vehicle period, i.e. 0.1% DMSO) and in the presence of the compound (agonist) under investigation.

Assay [1] relates to autophagy reporter Rosella (LC3 tag) in HeK293 cell line. Put plainly: Autophagy assay (reporter Rosella, imaging). It is filed as cell-based. As to conditions: Homo sapiens; HeK293 cells stably expressing reporter Rosella; 18 hours incubation; reference Torin-1 1 μM as max signal; read-out: Secondary Assays Autophagy qAC50. As to the method:
Buffers and Reagents • Tyrode's buffer with 2 mM Ca^2+ in-house solution (130 mM NaCl, 5 mM KCl, 2 mM CaCl2), 1 mM MgCl2, 5 mM NaHCO3, 20 mM HEPES in water at pH 7.4; sterile filtered) • DMSO (Sigma) • Bis-benzimide H 33342 trihydrochloride (Hoechst 33342; Sigma-Aldrich) • Reference molecule (agonist): Torin-1, (#4247, Tocris) stock 1.2 mM in DMSO, stored at −20° C.
Reporter of Autophagy and Cell Line
Reporter Rosella: a fluorescent-based chimera constitutes by two fluorescent proteins, Green and Red variants, acting as a bimodal indicator of pH. […] The reporter is fused to sequence for autophagosome localization (LC3 tag).
The reporter Rosella have been stably expressed in HeK293 cell line and used as read-out.
Experiments have been performed in 384 MTP poly-lysine coated well format. Cells have been seeded in 384-w at a density of 6000 cells/well in 25 μl/well complete growth medium without antibiotics. Twenty-four hours later, cells have been treated with compounds and incubated for further 18 hours. Then the cells have been imaged and assayed for the response to various compounds using the reporter for autophagy expressed in the cells as readout.
The experiments were performed in a 384-well format according to the following procedure: • 24 h after seeding, cells were incubated with compounds at the desired concentration, and with the reference molecule (agonist) Torin-1 at a top concentration of 1 μM (max signal), for 18 hours at 37° C. and 5% CO2. The final percentage of DMSO was 0.3% in all the conditions. • Then the culture medium was carefully removed to avoid cells detachment and to discard red phenol into the medium and that can interfere with the measurements. • Staining of the nuclei was obtained by incubating the cells with 8 μM/well of Hoechst 3342 in standard Tyrode's buffer for 20 min at RT • Then the cells were carefully washed two times with standard Tyrode's buffer • Finally, the samples were acquired by recording three fluorescence emission channels (green, red and blue) at 20× magnification and with at least 3-4 fields of view per well in an Operetta CLS microscope (PerkinElmer). • Image analysis was performed by using Harmony software (PerkinElmer). The image analysis involved the following steps: flat-field illumination correction, nuclei segmentation, cell segmentations and identification of vesicles/granules within the cytosol compartments and representing the autophagy vesicles. Measurements of signal intensity ratio (Green to Red) and number of autophagy vesicles per cells were used to obtain information on the effects of compounds on the autophagy flux. • Data from image analysis measurements were finally loaded and analyzed for normalization and fitting procedures in Genedata Screener© software.

T1 sequence (Q9GZU1 whole entry): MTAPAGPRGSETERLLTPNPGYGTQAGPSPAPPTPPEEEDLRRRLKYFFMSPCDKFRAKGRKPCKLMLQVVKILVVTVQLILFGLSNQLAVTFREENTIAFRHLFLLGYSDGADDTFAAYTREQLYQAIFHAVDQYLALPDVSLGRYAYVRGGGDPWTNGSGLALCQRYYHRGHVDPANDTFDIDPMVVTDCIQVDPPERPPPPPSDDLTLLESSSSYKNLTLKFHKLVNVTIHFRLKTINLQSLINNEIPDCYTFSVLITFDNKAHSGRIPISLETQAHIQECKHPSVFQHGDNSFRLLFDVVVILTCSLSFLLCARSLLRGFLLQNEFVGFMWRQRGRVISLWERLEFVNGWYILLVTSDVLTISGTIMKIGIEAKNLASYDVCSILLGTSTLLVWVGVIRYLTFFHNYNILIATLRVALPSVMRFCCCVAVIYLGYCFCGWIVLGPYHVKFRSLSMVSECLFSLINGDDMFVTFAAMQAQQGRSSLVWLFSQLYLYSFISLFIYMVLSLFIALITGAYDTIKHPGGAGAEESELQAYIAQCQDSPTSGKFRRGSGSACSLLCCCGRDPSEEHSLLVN

Take `CN(C)S(=O)(=O)c1ccc(S(=O)(=O)NC2CCCCC2N2CCC(Oc3ccccc3)CC2)cc1` (racemic) [Example 57, N1,N1-dimethyl-N4-[2-(4-phenoxypiperidin-1-yl)cyclohexyl]benzene-1,4-disulfonamide]: on TRPML1 (2.0 uM compound), the “Lysosomal Patch-Clamp Current fold increase Mean ± SEM (n)” value is 18.0 ± 8.5 (3). Further, in assay [1], the EC50 is 1800 nM.

Take `CN(C)S(=O)(=O)c1ccc(S(=O)(=O)Nc2ccccc2N2CCCCC2)cc1` [Example 6, N1,N1-dimethyl-N4-[2-(piperidin-1-yl)phenyl]benzene-1,4-disulfonamide]: the “Lysosomal Patch-Clamp Current fold increase Mean ± SEM (n)” value at TRPML1 (2.0 uM compound) is recorded as 3.3 ± 0.67 (3). For the same compound, in assay [1], the EC50 came to 4400 nM.

Consider `CN(C)S(=O)(=O)c1ccc(S(=O)(=O)Nc2ccccc2N2CCN(C(=O)OC(C)(C)C)CC2)cc1` [Example 13, tert-butyl 4-{2-[4-(dimethylsulfamoyl)benzenesulfonamido]phenyl}piperazine-1-carboxylate], for which, at TRPML1 (30.0 uM compound), the “Lysosomal Patch-Clamp Current fold increase Mean ± SEM (n)” value is 27.5 ± 10.8 (2). Besides, in assay [1], the EC50 amounted to 520 nM.

In the case of `CN(C)S(=O)(=O)c1ccc(S(=O)(=O)Nc2ccccc2N2CCC(Oc3ccccn3)CC2)cc1` [Example 75, N1,N1-dimethyl-N4-{2-[4-(pyridin-2-yloxy)piperidin-1-yl]phenyl}benzene-1,4-disulfonamide], in assay [1], the EC50 was determined as 170 nM.

With `CN(C)S(=O)(=O)c1ccc(S(=O)(=O)Nc2ccccc2N2CCC(C(=O)OC(C)(C)C)CC2)cc1` [Example 76, f-butyl 1-{2-[4-(dimethylsulfamoyl)benzenesulfonamido]phenyl}piperidine-4-carboxylate], the EC50 in assay [1] was 59 nM.

With `CN(C)S(=O)(=O)c1ccc(S(=O)(=O)Nc2ccccc2N2CCC(Oc3cnccn3)CC2)cc1` [Example 77, N1,N1-dimethyl-N4-{2-[4-(pyrazin-2-yloxy)piperidin-1-yl]phenyl} benzene-1,4-disulfonamide], the EC50 in assay [1] turned out to be 250 nM.
